Assay: xn = mol fraction of the nth substance listed
Conditions: 101 kPa, Liquid

O=[N+]([O-])c1ccccc1 [nitrobenzene] + c1ccccc1
Conditions | mass density [kg/m3]
293.15 K, x2 = 0 | 1202.95
293.15 K, x2 = 0.0532 | 1187.99
293.15 K, x2 = 0.1189 | 1169.24
293.15 K, x2 = 0.1842 | 1150.3
293.15 K, x2 = 0.2479 | 1131.5
293.15 K, x2 = 0.3012 | 1115.52
293.15 K, x2 = 0.3581 | 1098.17
293.15 K, x2 = 0.425 | 1077.37
293.15 K, x2 = 0.4891 | 1057.04
293.15 K, x2 = 0.5311 | 1043.49
293.15 K, x2 = 0.6023 | 1020.07
293.15 K, x2 = 0.6521 | 1003.34
293.15 K, x2 = 0.7198 | 980.14
293.15 K, x2 = 0.7811 | 958.64
293.15 K, x2 = 0.8534 | 932.66
293.15 K, x2 = 0.9212 | 907.66
303.15 K, x2 = 0 | 1193.56
303.15 K, x2 = 0.0612 | 1176.18
303.15 K, x2 = 0.1384 | 1153.92
303.15 K, x2 = 0.1732 | 1143.76
303.15 K, x2 = 0.2543 | 1119.7
303.15 K, x2 = 0.3132 | 1101.89
303.15 K, x2 = 0.3821 | 1080.7
303.15 K, x2 = 0.4422 | 1061.84
303.15 K, x2 = 0.4922 | 1045.9
303.15 K, x2 = 0.5543 | 1025.75
303.15 K, x2 = 0.6123 | 1006.56
303.15 K, x2 = 0.6831 | 982.62
303.15 K, x2 = 0.7534 | 958.28
303.15 K, x2 = 0.8113 | 937.78
303.15 K, x2 = 0.8713 | 916.1
303.15 K, x2 = 0.9378 | 891.52
313.15 K, x2 = 0 | 1183.37
313.15 K, x2 = 0.0522 | 1168.46
313.15 K, x2 = 0.1234 | 1147.88
313.15 K, x2 = 0.1923 | 1127.63
313.15 K, x2 = 0.2612 | 1107.04
313.15 K, x2 = 0.3122 | 1091.57
313.15 K, x2 = 0.3723 | 1073.06
313.15 K, x2 = 0.4234 | 1057.08
313.15 K, x2 = 0.4865 | 1037.03
313.15 K, x2 = 0.5382 | 1020.3
313.15 K, x2 = 0.6032 | 998.9
313.15 K, x2 = 0.6632 | 978.75
313.15 K, x2 = 0.7219 | 958.66
313.15 K, x2 = 0.7932 | 933.72
313.15 K, x2 = 0.8428 | 916.03
313.15 K, x2 = 0.9247 | 886.12
323.15 K, x2 = 0 | 1172.38
323.15 K, x2 = 0.0479 | 1158.64
323.15 K, x2 = 0.1387 | 1132.24
323.15 K, x2 = 0.1842 | 1118.82
323.15 K, x2 = 0.2487 | 1099.55
323.15 K, x2 = 0.3286 | 1075.26
323.15 K, x2 = 0.392 | 1055.64
323.15 K, x2 = 0.435 | 1042.13
323.15 K, x2 = 0.5023 | 1020.68
323.15 K, x2 = 0.543 | 1007.49
323.15 K, x2 = 0.592 | 991.42
323.15 K, x2 = 0.6633 | 967.59
323.15 K, x2 = 0.7328 | 943.85
323.15 K, x2 = 0.7931 | 922.82
323.15 K, x2 = 0.8538 | 901.23
323.15 K, x2 = 0.9423 | 868.96
333.15 K, x2 = 0 | 1160.59
333.15 K, x2 = 0.0501 | 1146.17
333.15 K, x2 = 0.1421 | 1119.35
333.15 K, x2 = 0.1924 | 1104.47
333.15 K, x2 = 0.2517 | 1086.72
333.15 K, x2 = 0.3184 | 1066.47
333.15 K, x2 = 0.3618 | 1053.11
333.15 K, x2 = 0.4248 | 1033.47
333.15 K, x2 = 0.4921 | 1012.12
333.15 K, x2 = 0.5524 | 992.65
333.15 K, x2 = 0.6013 | 976.62
333.15 K, x2 = 0.664 | 955.73
333.15 K, x2 = 0.723 | 935.71
333.15 K, x2 = 0.7813 | 915.56
333.15 K, x2 = 0.8342 | 896.97
333.15 K, x2 = 0.9234 | 864.89
343.15 K, x2 = 0 | 1148
343.15 K, x2 = 0.0632 | 1129.76
343.15 K, x2 = 0.1567 | 1102.42
343.15 K, x2 = 0.219 | 1083.91
343.15 K, x2 = 0.2678 | 1069.26
343.15 K, x2 = 0.3347 | 1048.9
343.15 K, x2 = 0.3972 | 1029.6
343.15 K, x2 = 0.4581 | 1010.51
343.15 K, x2 = 0.5124 | 993.23
343.15 K, x2 = 0.5639 | 976.61
343.15 K, x2 = 0.6384 | 952.15
343.15 K, x2 = 0.7038 | 930.24
343.15 K, x2 = 0.7598 | 911.15
343.15 K, x2 = 0.8234 | 889.07
343.15 K, x2 = 0.8824 | 868.19
343.15 K, x2 = 0.9423 | 846.61

C=Cc1ccccc1 [styrene] + O=[N+]([O-])c1ccccc1
Conditions | mass density [kg/m3]
293.15 K, x1 = 0.0536 | 1185.47
293.15 K, x1 = 0.1324 | 1160.15
293.15 K, x1 = 0.1909 | 1141.63
293.15 K, x1 = 0.2564 | 1121.18
293.15 K, x1 = 0.3257 | 1099.86
293.15 K, x1 = 0.3986 | 1077.76
293.15 K, x1 = 0.4576 | 1060.12
293.15 K, x1 = 0.5243 | 1040.42
293.15 K, x1 = 0.5888 | 1021.61
293.15 K, x1 = 0.6424 | 1006.13
293.15 K, x1 = 0.7156 | 985.23
293.15 K, x1 = 0.7756 | 968.27
293.15 K, x1 = 0.8324 | 952.34
293.15 K, x1 = 0.8755 | 940.34
293.15 K, x1 = 0.9424 | 921.83
293.15 K, x1 = 1 | 906
303.15 K, x1 = 0.0621 | 1173.19
303.15 K, x1 = 0.1248 | 1152.93
303.15 K, x1 = 0.1822 | 1134.64
303.15 K, x1 = 0.2429 | 1115.56
303.15 K, x1 = 0.3139 | 1093.59
303.15 K, x1 = 0.3571 | 1080.39
303.15 K, x1 = 0.4249 | 1059.93
303.15 K, x1 = 0.4819 | 1042.96
303.15 K, x1 = 0.5487 | 1023.33
303.15 K, x1 = 0.5901 | 1011.29
303.15 K, x1 = 0.6528 | 993.23
303.15 K, x1 = 0.7289 | 971.58
303.15 K, x1 = 0.7913 | 954.03
303.15 K, x1 = 0.8592 | 935.12
303.15 K, x1 = 0.9368 | 913.72
303.15 K, x1 = 1 | 896.44
313.15 K, x1 = 0.0492 | 1167.15
313.15 K, x1 = 0.1189 | 1144.52
313.15 K, x1 = 0.1898 | 1121.9
313.15 K, x1 = 0.2563 | 1101.03
313.15 K, x1 = 0.3398 | 1075.31
313.15 K, x1 = 0.4018 | 1056.54
313.15 K, x1 = 0.4621 | 1038.54
313.15 K, x1 = 0.5243 | 1020.21
313.15 K, x1 = 0.5811 | 1003.69
313.15 K, x1 = 0.6421 | 986.16
313.15 K, x1 = 0.7132 | 965.98
313.15 K, x1 = 0.7723 | 949.39
313.15 K, x1 = 0.8421 | 930.01
313.15 K, x1 = 0.8942 | 915.68
313.15 K, x1 = 0.9524 | 899.79
313.15 K, x1 = 1 | 886.88
323.15 K, x1 = 0.0598 | 1152.7
323.15 K, x1 = 0.1329 | 1129.06
323.15 K, x1 = 0.1942 | 1109.58
323.15 K, x1 = 0.2458 | 1093.41
323.15 K, x1 = 0.3239 | 1069.35
323.15 K, x1 = 0.3891 | 1049.61
323.15 K, x1 = 0.4314 | 1036.97
323.15 K, x1 = 0.5028 | 1015.92
323.15 K, x1 = 0.5622 | 998.67
323.15 K, x1 = 0.6321 | 978.64
323.15 K, x1 = 0.6873 | 963.03
323.15 K, x1 = 0.7419 | 947.74
323.15 K, x1 = 0.8054 | 930.15
323.15 K, x1 = 0.8823 | 909.1
323.15 K, x1 = 0.9339 | 895.1
323.15 K, x1 = 1 | 877.32
333.15 K, x1 = 0.0647 | 1139.39
333.15 K, x1 = 0.1278 | 1119.07
333.15 K, x1 = 0.1825 | 1101.73
333.15 K, x1 = 0.2542 | 1079.38
333.15 K, x1 = 0.3183 | 1059.76
333.15 K, x1 = 0.3798 | 1041.24
333.15 K, x1 = 0.4248 | 1027.86
333.15 K, x1 = 0.4892 | 1008.97
333.15 K, x1 = 0.5329 | 996.32
333.15 K, x1 = 0.5892 | 980.2
333.15 K, x1 = 0.6379 | 966.41
333.15 K, x1 = 0.7132 | 945.37
333.15 K, x1 = 0.7987 | 921.85
333.15 K, x1 = 0.868 | 903.04
333.15 K, x1 = 0.9468 | 881.9
333.15 K, x1 = 1 | 867.76
343.15 K, x1 = 0.0687 | 1125.66
343.15 K, x1 = 0.1139 | 1111.2
343.15 K, x1 = 0.1842 | 1089.06
343.15 K, x1 = 0.2389 | 1072.13
343.15 K, x1 = 0.3234 | 1046.47
343.15 K, x1 = 0.3894 | 1026.81
343.15 K, x1 = 0.4346 | 1013.54
343.15 K, x1 = 0.4903 | 997.4
343.15 K, x1 = 0.5538 | 979.25
343.15 K, x1 = 0.614 | 962.29
343.15 K, x1 = 0.6622 | 948.88
343.15 K, x1 = 0.7319 | 929.71
343.15 K, x1 = 0.7922 | 913.35
343.15 K, x1 = 0.8531 | 896.99
343.15 K, x1 = 0.9234 | 878.32
343.15 K, x1 = 1 | 858.2
353.15 K, x1 = 0.055 | 1116.88
353.15 K, x1 = 0.1376 | 1090.79
353.15 K, x1 = 0.1726 | 1079.91
353.15 K, x1 = 0.2389 | 1059.6
353.15 K, x1 = 0.302 | 1040.61
353.15 K, x1 = 0.3791 | 1017.85
353.15 K, x1 = 0.4349 | 1001.66
353.15 K, x1 = 0.5139 | 979.13
353.15 K, x1 = 0.5628 | 965.4
353.15 K, x1 = 0.6249 | 948.19
353.15 K, x1 = 0.6733 | 934.94
353.15 K, x1 = 0.7234 | 921.37
353.15 K, x1 = 0.7981 | 901.38
353.15 K, x1 = 0.8621 | 884.47
353.15 K, x1 = 0.9412 | 863.83
353.15 K, x1 = 1 | 848.64

Reference: the NIST ThermoML archive (doi:10.1016/j.jct.2004.12.008)
